Data set [1] relates to SARS-CoV-2. Briefly: microbe, parasite or virus in culture. The data set is classed as cell-based.
A short description of a further data set: in vitro. Particulars: African green monkey.
Data set [2] concerns Vero E6 cells. Briefly: Cell viability / 50% cytotoxic concentration, EZ-Cytox kit. Particulars: Vero E6 cells, 1 nM–100 µM, 2 days of treatment; Table S2.
The test system of data set [3] is Vero E6 cells.
Data set [4] is described as follows: Cell viability / 50% cytotoxic concentration, EZ-Cytox kit. Particulars: African green monkey, CC50, Vero E6 cells.
For data set [5] the following is noted: all patients, clinical settings; cited from earlier work.
The test system of data set [6] is SARS-CoV-2 papain-like protease. Particulars: cited from earlier work.
Data set [7] has as its system SARS-CoV-2. Particulars: cited from earlier work.
Another data set concerns ZIKV protease. Details: method as in Cardoso et al. 43, 44. The note with it: competitive inhibition; ref Cardoso et al. 43, 44; cited from earlier work.
In a further data set the test system is YFV protease. Particulars: competitive inhibition; ref Cardoso et al. 43, 44; cited from earlier work.
In another data set the test system is CHIKV nsP2 protease. Details: method as in Cardoso et al. 43, 44. Particulars: ref Cardoso et al. 43, 44; cited from earlier work.
Setting [8] is: Severe acute respiratory syndrome coronavirus 2, Vero C1008, Vero E6 cells, MOI 0.01, compound together with virus for 2 h, titers at 48 h, Table S2, '-' = no significant antiviral effect, read-out: IC50.
[9] abbreviates: Vero E6 cells, MOI 0.01, compound together with virus for 2 h, titers at 48 h, Table S2, '-' = no significant antiviral effect, read-out: IC50.
Where [10] appears, read: 1 nM–100 µM, 2 days of treatment, Table S2.
Where [11] appears, read: Severe acute respiratory syndrome coronavirus 2, Vero C1008, compound added 2 h before inoculation, washed, then infected 2 h, titers 48 h post-infection, '-' = no measurable antiviral effect, read-out: IC50 Pre-infection.
Setting [12] is: Severe acute respiratory syndrome coronavirus 2, Vero C1008, infected 2 h, washed, then medium containing compound, titers 48 h post-infection, '-' = no measurable antiviral effect, read-out: IC50 Post-infection.
[13] abbreviates: Severe acute respiratory syndrome coronavirus 2, Vero C1008, Vero E6 cells, MOI 0.01, treatment during inoculation 2 h, then drug-free 48 h, Fig. 1, read-out: IC50.
Where [14] appears, read: Vero E6 cells, MOI 0.01, treatment during inoculation 2 h, then drug-free 48 h, Fig. 1, read-out: IC50.

Entries after “also recorded” stand apart in the source; their conditions may differ. Structures can show the parent of a compound that is named as a salt. Where two headings read alike, the source gives them in different places.

For the compound `COc1cc2nc(N3CCNCC3)nc(N)c2cc1OC` [6,7-dimethoxy-2-(1-piperazinyl)-4-quinazolinamine], in the data set on SARS-CoV-2 [1] (setting [8]), the IC50 (as a rule, the point on the concentration scale where inhibition reaches its midpoint) is greater than 100 µM. Also, the CC50 at 2 days in “in vitro” is greater than 100 µM.
With `N[C@@H](Cc1c[nH]c2ccc(O)cc12)C(=O)O` [5-Hydroxy-L-tryptophan (4PQ), 5-hydroxy-L-tryptophan], in the data set with SARS-CoV-2 [1] (setting [8]), the IC50 was greater than 100 µM. Besides, the CC50 at 2 days in “in vitro” is greater than 100 µM.
For `C/C1=C2/[N-][C@H]([C@H](CC(N)=O)[C@@]2(C)CCC(=O)NC[C@@H](C)OP(=O)([O-])O[C@H]2[C@@H](O)[C@@H](n3cnc4cc(C)c(C)cc43)O[C@@H]2CO)[C@]2(C)N=C(/C(C)=C3N=C(/C=C4N=C1[C@@H](CCC(N)=O)C\4(C)C)[C@@H](CCC(N)=O)[C@]\3(C)CC(N)=O)[C@@H](CCC(N)=O)[C@]2(C)CC(N)=O.[Co+3].[OH-]` [Hydroxocobalamin (HPA), hydroxocobalamin], in the data set with SARS-CoV-2 [1] (setting [9]), the IC50 was greater than 100 µM. For the same compound, the CC50 in the data set with Vero E6 cells [2] is greater than 100 µM.
On to `Nc1ncnc2nc[nH]c12` [Adenine (ADE), adenine], for which the IC50 in the data set on SARS-CoV-2 [1] (setting [8]) was greater than 100 µM. The compound further returned a CC50 in the data set “in vitro” greater than 100 µM.
Take `C/C1=C2/N[C@H]([C@H](CC(N)=O)[C@@]2(C)CCC(=O)NC[C@@H](C)OP(=O)(O)O[C@H]2[C@@H](O)[C@@H](n3cnc4cc(C)c(C)cc43)O[C@@H]2CO)[C@]2(C)N=C(/C(C)=C3N=C(/C=C4N=C1[C@@H](CCC(N)=O)C\4(C)C)[C@@H](CCC(N)=O)[C@]\3(C)CC(N)=O)[C@@H](CCC(N)=O)[C@]2(C)CC(N)=O.C[C@H]1O[C@@H](n2cnc3c(N)ncnc32)[C@H](O)[C@@H]1O.[Co]` [Coenzyme B12 (B1Z), coenzyme B12]: in the data set on SARS-CoV-2 [1] (setting [9]), the IC50 was greater than 100 µM. Further, the CC50 with Vero E6 cells [3] was greater than 100 µM.
`O=c1[nH]cnc2nc[nH]c12` [Hypoxanthine (HPA), hypoxanthine]: the IC50 in the data set on SARS-CoV-2 [1] (setting [8]) is greater than 100 µM. In data set [4] (setting [10]), this compound yielded a CC50 at 2 days greater than 100 µM.
Take `Nc1ncnc2c1ncn2[C@@H]1O[C@@H]2COP(=O)(O)O[C@H]3[C@@H](O)[C@H](n4cnc5c(N)ncnc54)O[C@@H]3COP(=O)(O)O[C@H]2[C@H]1O` [c-di-AMP sodium salt (2BA), c-di-AMP sodium salt]: in the data set with SARS-CoV-2 [1] (setting [9]), the IC50 is greater than 100 µM. Besides, in the data set on Vero E6 cells [3], the CC50 is greater than 100 µM.
As to `Nc1ncnc2c1ncn2[C@@H]1O[C@H](CSCC[C@H](N)C(=O)O)[C@@H](O)[C@H]1O` [S-Adenosyl-L-homocysteine (SAH), S-adenosyl-l-homocysteine], the IC50 with SARS-CoV-2 [1] (setting [9]) was greater than 100 µM. The CC50 in the data set with Vero E6 cells [2] is greater than 100 µM.
Consider `Cc1cc2nc3c(=O)[nH]c(=O)nc-3n(C[C@H](O)[C@H](O)[C@H](O)COP(=O)(O)O)c2cc1C` [riboflavin 5′-monophosphate sodium salt hydrate], for which the IC50 in the data set on SARS-CoV-2 [1] (setting [8]) is 59.4 µM; in the data set with SARS-CoV-2 [1] (setting [11]), greater than 100 µM; in the data set on SARS-CoV-2 [1] (Severe acute respiratory syndrome coronavirus 2, Vero C1008, compound and virus simultaneously for 2 h, washed, titers 48 h post-infection, read-out: IC50 During infection), 59.4 µM; in the data set on SARS-CoV-2 [1] (setting [12]), greater than 100 µM. In the data set with Vero E6 cells [3] (African green monkey, 2 days), the CC50 is greater than 100 µM. Moreover, the CC50 at 2 days in the data set “in vitro” worked out at 98.9 µM.
Turning to `CCC(CC)COC(=O)[C@H](C)N[P@](=O)(OC[C@H]1O[C@@](C#N)(c2ccc3c(N)ncnn23)[C@H](O)[C@@H]1O)Oc1ccccc1` [Remdesivir], the IC50 in the data set on SARS-CoV-2 [1] (setting [13]) is 25.8 µM; in the data set on SARS-CoV-2 [1] (setting [11]), less than 6.11 µM; in the data set on SARS-CoV-2 [1] (setting [12]), 3.47 µM; in the data set with SARS-CoV-2 [1] (setting [14]) it was 25.8 µM. In data set [5], the “patients with elevated liver enzymes” value was 35%. Moreover, the CC50 at 2 days in data set [4] (0–100 μM, Table S3) is 98.9 µM; in [4] (setting [10]) it was greater than 100 µM.
Turning to `Cc1cc2nc3c(=O)[nH]c(=O)nc-3n(C[C@H](O)[C@H](O)[C@H](O)CO)c2cc1C` [riboflavin], the IC50 with SARS-CoV-2 [1] (setting [13]) and in the data set with SARS-CoV-2 [1] (setting [14]) was 59.4 µM each time. In addition, the “antiviral effect, treatment post-infection” value with SARS-CoV-2 [1] (Vero E6 cells, 2 h post-infection, in words) is “no measurable antiviral effects; also recorded: no effect”. In addition, the “antiviral effect, treatment prior to infection” value in the data set on SARS-CoV-2 [1] (Vero E6 cells, 2 h prior to infection, in words) is recorded as “no measurable antiviral effects; also recorded: no effect”. Further, the “antiviral effect, treatment during viral inoculation” value in the data set on SARS-CoV-2 [1] (Vero E6 cells, in words) is listed as “significant inhibition; also recorded: significantly reduced viral replication”. The “effect on viral replication when added to the culture medium after viral inoculation” value with SARS-CoV-2 [1] (drug-containing media for 48 h, Supplementary Fig. S1, in words) is recorded as “additional inhibitory effects on viral replication were observed”. Further, the “concentration inhibiting SARS-CoV-2 papain-like protease in vitro” value in data set [6] was greater than 50 µM. In addition, the “concentration inhibiting viral papain-like protease (PLpro)” value in data set [6] (high concentrations, ref 2 (supplement)) was greater than 50 µM. For the same compound, the “effect on viral replication in cellular models” value with SARS-CoV-2 [7] is recorded as “fails to block viral replication”. Also, in the data set on ZIKV protease, the “IC50, ZIKV protease” value was “medium micromolar range”. In addition, the “IC50, YFV protease” value in the data set on YFV protease is listed as “medium micromolar range”. For the same compound, in the data set with CHIKV nsP2 protease, the “activity against CHIKV nsP2 protease” value is “potent activity”. The CC50 at 2 days in [4] (text and Fig. 1 (Fig. 1: 2 h treatment, then drug-free media 48 h)) is greater than 100 µM.
With `Nc1nc2c(ncn2[C@@H]2O[C@@H]3COP(=O)(O)O[C@H]4[C@@H](O)[C@H](n5cnc6c(N)ncnc65)O[C@@H]4COP(=O)(O)O[C@H]3[C@H]2O)c(=O)[nH]1` [cGAMP sodium salt], the IC50 in the data set with SARS-CoV-2 [1] (setting [9]) is greater than 100 µM. In the data set with Vero E6 cells [2], the CC50 was greater than 100 µM.
As for `NC[C@@H]1O[C@H](O[C@H]2[C@@H](O)[C@H](O[C@@H]3[C@@H](O)[C@H](N)C[C@H](N)[C@H]3O[C@H]3O[C@H](CN)[C@@H](O)[C@H](O)[C@H]3N)O[C@@H]2CO)[C@H](N)[C@@H](O)[C@@H]1O` [Neomycin solution (NMY), neomycin solution], the IC50 with SARS-CoV-2 [1] (setting [9]) is greater than 100 µM. This compound also showed a CC50 in the data set on Vero E6 cells [2] greater than 100 µM.

Source of the values: PMC12373729 (Scientific Reports, 2025).
